Test results reported in patent US20170144998A1, “ELASTASE INHIBITORS” (The California Institute for Biomedical Research, priority 2014, published 2017).

molecular target: T1, HNE (human neutrophil elastase) (Homo sapiens, UniProt P08246); experiment: Elastase enzyme in-vitro inhibition assay; format: biochemical; settings: HNE 20 nM, 15 min incubation at room temperature, substrate MeOSuc-AAPV-AMC 100 μM, PBS buffer
T1 construct: purchased Elastin Products (Owensville, Mo., USA) SE563
T1 sequence (P08246 30-267): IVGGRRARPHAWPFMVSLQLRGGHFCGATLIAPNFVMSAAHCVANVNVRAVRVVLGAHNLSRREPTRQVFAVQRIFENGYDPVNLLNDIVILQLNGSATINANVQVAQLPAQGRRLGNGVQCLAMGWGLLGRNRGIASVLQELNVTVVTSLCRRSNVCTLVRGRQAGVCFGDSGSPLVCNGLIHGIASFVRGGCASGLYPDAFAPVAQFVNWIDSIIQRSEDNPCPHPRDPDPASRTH
Description: HNE were purchased from Elastin Products (Owensville, Mo., USA) with catalog number SE563. Fixed concentrations of HNE (20 nM) were incubated with various concentrations of inhibitors in PBS buffer in opaque 96-well plates. After 15 min incubation at room temperature, the corresponding fluorescent substrates MeOSuc-AAPV-AMC (Merck Millipore) were added to each well at final concentration 100 μM. Fluorescence was monitored on a Molecular Devices Spectramax fluorescence plate reader at 460 nm with excitation at 380 nm for 30 min. Residual enzyme activity was calculated using the slope of fluorescence increase in the first 10 min. Percentage of enzyme inhibition was plotted using GraphPad Prism 6 software (GraphPad Prism, La Jolla, Calif., USA). The IC50 value and Ki value was calculated using the Morrison tight-binding equation provided by the software.

| SMILES | IC50 |
| --- | --- |
| CC(C)C(NC(=O)[C@@H]1CCCN1C(=O)[C@@H](NC(=O)c1ccc(C(=O)NCCOCCOCCNC(=O)NCCCCNC(=O)NCCOCCOCCNC(=O)c2ccc(C(=O)N[C@H](C(=O)N3CCC[C@H]3C(=O)NC(C(=O)C(F)(F)F)C(C)C)C(C)C)cc2)cc1)C(C)C)C(=O)C(F)(F)F (some centres unmarked) [Compound 1] | < 150 nM |
| Cc1c(-c2ccnn2C)cc(C(=O)NCCOCCOCCNC(=O)NCCCCNC(=O)NCCOCCOCCNC(=O)c2cc(-c3ccnn3C)c(C)n(-c3cccc(C(F)(F)F)c3)c2=O)c(=O)n1-c1cccc(C(F)(F)F)c1 [Compound 2] | 150 to 1000 nM |
| Cc1c(-c2ccnn2-c2ccc(C#N)cc2)cc(C(=O)NCCOCCOCCNC(=O)NCCCCNC(=O)NCCOCCOCCNC(=O)c2cc(-c3ccnn3-c3ccc(C#N)cc3)c(C)n(-c3cccc(C(F)(F)F)c3)c2=O)c(=O)n1-c1cccc(C(F)(F)F)c1 [Compound 14] | < 150 nM |
| Cc1c([S+]([O-])c2ccc(C#N)cc2)cc(C(=O)NCCOCCOCCOCCOCCNC(=O)NCCCCNC(=O)NCCOCCOCCOCCOCCNC(=O)c2cc([S+]([O-])c3ccc(C#N)cc3)c(C)n(-c3cccc(C(F)(F)F)c3)c2=O)c(=O)n1-c1cccc(C(F)(F)F)c1 (centres unmarked) [Compound 15] | < 150 nM |
| Cc1c([S+]([O-])c2ccc(C#N)cc2)cc(C(=O)NCCOCCOCCOCCOCCNC(=O)CCC(=O)NCCOCCOCCOCCOCCNC(=O)c2cc([S+]([O-])c3ccc(C#N)cc3)c(C)n(-c3cccc(C(F)(F)F)c3)c2=O)c(=O)n1-c1cccc(C(F)(F)F)c1 (centres unmarked) [Compound 16] | < 150 nM |
| Cc1c([S+]([O-])c2ccc(C#N)cc2)cc(C(=O)NCCOCCOCCOCCNC(=O)NCCCCNC(=O)NCCOCCOCCOCCNC(=O)c2cc([S+]([O-])c3ccc(C#N)cc3)c(C)n(-c3cccc(C(F)(F)F)c3)c2=O)c(=O)n1-c1cccc(C(F)(F)F)c1 (centres unmarked) [Compound 17] | 150 to 1000 nM |
| Cc1c([S+]([O-])c2ccc(C#N)cc2)cc(C(=O)NCCOCCOCCOCCNC(=O)CCC(=O)NCCOCCOCCOCCNC(=O)c2cc([S+]([O-])c3ccc(C#N)cc3)c(C)n(-c3cccc(C(F)(F)F)c3)c2=O)c(=O)n1-c1cccc(C(F)(F)F)c1 (centres unmarked) [Compound 18] | < 150 nM |
| Cc1c([S+]([O-])c2ccc(C#N)cc2)cc(C(=O)NCCOCCOCCNC(=O)C(=O)NCCOCCOCCNC(=O)c2cc([S+]([O-])c3ccc(C#N)cc3)c(C)n(-c3cccc(C(F)(F)F)c3)c2=O)c(=O)n1-c1cccc(C(F)(F)F)c1 (centres unmarked) [Compound 19] | < 150 nM |
| Cc1c([S+]([O-])c2ccc(C#N)cc2)cc(C(=O)NCCOCCOCCNC(=O)NCCCCNC(=O)NCCOCCOCCNC(=O)c2cc([S+]([O-])c3ccc(C#N)cc3)c(C)n(-c3cccc(C(F)(F)F)c3)c2=O)c(=O)n1-c1cccc(C(F)(F)F)c1 (centres unmarked) [Compound 20] | 150 to 1000 nM |

Continued, values first:

| IC50 | SMILES |
| --- | --- |
| < 150 nM | Cc1c(-c2ccnn2-c2ccc(C#N)cc2)cc(C(=O)NCCOCCOCCNC(=O)NCCOCCOCCNC(=O)c2cc(-c3ccnn3-c3ccc(C#N)cc3)c(C)n(-c3cccc(C(F)(F)F)c3)c2=O)c(=O)n1-c1cccc(C(F)(F)F)c1 [Compound 3] |
| < 150 nM | Cc1c(-c2ccnn2-c2ccc(C#N)cc2)cc(C(=O)NCCOCCOCCOCCOCCNC(=O)NCCCCNC(=O)NCCOCCOCCOCCOCCNC(=O)c2cc(-c3ccnn3-c3ccc(C#N)cc3)c(C)n(-c3cccc(C(F)(F)F)c3)c2=O)c(=O)n1-c1cccc(C(F)(F)F)c1 [Compound 4] |
| < 150 nM | Cc1c(-c2ccnn2-c2ccc(C#N)cc2)cc(C(=O)NCCOCCOCCOCCOCCNC(=O)CCC(=O)NCCOCCOCCOCCOCCNC(=O)c2cc(-c3ccnn3-c3ccc(C#N)cc3)c(C)n(-c3cccc(C(F)(F)F)c3)c2=O)c(=O)n1-c1cccc(C(F)(F)F)c1 [Compound 5] |
| < 150 nM | Cc1c(-c2ccnn2-c2ccc(C#N)cc2)cc(C(=O)NCCOCCOCCOCCOCCNC(=O)NCCOCCOCCOCCOCCNC(=O)c2cc(-c3ccnn3-c3ccc(C#N)cc3)c(C)n(-c3cccc(C(F)(F)F)c3)c2=O)c(=O)n1-c1cccc(C(F)(F)F)c1 [Compound 6] |
| 150 to 1000 nM | Cc1c(-c2ccnn2-c2ccc(C#N)cc2)cc(C(=O)NCCOCCOCCOCCOCCNC(=O)C(=O)NCCOCCOCCOCCOCCNC(=O)c2cc(-c3ccnn3-c3ccc(C#N)cc3)c(C)n(-c3cccc(C(F)(F)F)c3)c2=O)c(=O)n1-c1cccc(C(F)(F)F)c1 [Compound 7] |
| < 150 nM | Cc1c(-c2ccnn2-c2ccc(C#N)cc2)cc(C(=O)NCCOCCOCCNC(=O)CCC(=O)NCCOCCOCCNC(=O)c2cc(-c3ccnn3-c3ccc(C#N)cc3)c(C)n(-c3cccc(C(F)(F)F)c3)c2=O)c(=O)n1-c1cccc(C(F)(F)F)c1 [Compound 8] |
| < 150 nM | Cc1c(-c2ccnn2-c2ccc(C#N)cc2)cc(C(=O)NCCOCCOCCNC(=O)C(=O)NCCOCCOCCNC(=O)c2cc(-c3ccnn3-c3ccc(C#N)cc3)c(C)n(-c3cccc(C(F)(F)F)c3)c2=O)c(=O)n1-c1cccc(C(F)(F)F)c1 [Compound 9] |
| < 150 nM | Cc1c(-c2ccnn2-c2ccc(C#N)cc2)cc(C(=O)NCCOCCOCCOCCNC(=O)NCCOCCOCCOCCNC(=O)c2cc(-c3ccnn3-c3ccc(C#N)cc3)c(C)n(-c3cccc(C(F)(F)F)c3)c2=O)c(=O)n1-c1cccc(C(F)(F)F)c1 [Compound 10] |
| 150 to 1000 nM | Cc1c(-c2ccnn2-c2ccc(C#N)cc2)cc(C(=O)NCCOCCOCCOCCNC(=O)NCCCCNC(=O)NCCOCCOCCOCCNC(=O)c2cc(-c3ccnn3-c3ccc(C#N)cc3)c(C)n(-c3cccc(C(F)(F)F)c3)c2=O)c(=O)n1-c1cccc(C(F)(F)F)c1 [Compound 11] |
| < 150 nM | Cc1c(-c2ccnn2-c2ccc(C#N)cc2)cc(C(=O)NCCOCCOCCOCCNC(=O)CCC(=O)NCCOCCOCCOCCNC(=O)c2cc(-c3ccnn3-c3ccc(C#N)cc3)c(C)n(-c3cccc(C(F)(F)F)c3)c2=O)c(=O)n1-c1cccc(C(F)(F)F)c1 [Compound 12] |
| < 150 nM | Cc1c(-c2ccnn2-c2ccc(C#N)cc2)cc(C(=O)NCCOCCOCCOCCNC(=O)C(=O)NCCOCCOCCOCCNC(=O)c2cc(-c3ccnn3-c3ccc(C#N)cc3)c(C)n(-c3cccc(C(F)(F)F)c3)c2=O)c(=O)n1-c1cccc(C(F)(F)F)c1 [Compound 13] |
